Numbering of substitutions follows the chain as printed.
Key:
[1] = target: T1, RhOpn5 (Rimicaris hybisae, UniProt Z9SF72QZI5, E196Q, form not given); experiment: UV-visible absorption spectroscopy of purified pigment; format: binding; settings: covalent (Schiff base, Lys296); pH 8.0 and 6.5; 0 °C; mutation in bovine rhodopsin numbering
T1 construct: 178 C-terminal residues truncated, C-terminal Rho1D4 tag (ETSQVAPA), human-codon optimized, HEK293T; transcriptome reads SRA SRP339896
T1 sequence (Z9SF72QZI5 1-407 E196Q): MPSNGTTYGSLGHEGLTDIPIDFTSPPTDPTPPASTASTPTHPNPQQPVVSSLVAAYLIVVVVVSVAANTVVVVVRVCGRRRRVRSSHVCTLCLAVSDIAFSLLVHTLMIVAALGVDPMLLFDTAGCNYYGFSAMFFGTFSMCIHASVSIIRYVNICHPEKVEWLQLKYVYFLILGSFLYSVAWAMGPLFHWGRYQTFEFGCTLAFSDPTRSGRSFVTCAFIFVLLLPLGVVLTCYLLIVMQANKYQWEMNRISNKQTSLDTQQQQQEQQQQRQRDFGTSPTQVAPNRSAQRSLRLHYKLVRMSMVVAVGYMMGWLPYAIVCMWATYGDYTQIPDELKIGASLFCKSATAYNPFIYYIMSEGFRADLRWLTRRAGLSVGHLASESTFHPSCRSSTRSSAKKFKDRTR

[2] = target: T2, RhOpn5 (Rimicaris hybisae, UniProt Z9SF72QZI5); experiment: as above; format: binding; settings: covalent (Schiff base, Lys296); pH 8.0 and 6.5; 0 °C; mutation in bovine rhodopsin numbering
T2 construct: 178 C-terminal residues truncated, C-terminal Rho1D4 tag (ETSQVAPA), human-codon optimized, HEK293T; transcriptome reads SRA SRP339896
T2 sequence (Z9SF72QZI5 1-407 E336Q): T1 sequence (Z9SF72QZI5 1-407 E196Q) with Q196E, E336Q

[3] = target: T3, RhOpn5 (Rimicaris hybisae, UniProt Z9SF72QZI5, E199Q, form not given); experiment: as above; format: binding; settings: covalent (Schiff base, Lys296); pH 8.0 and 6.5; 0 °C; mutation in bovine rhodopsin numbering
T3 construct: 178 C-terminal residues truncated, C-terminal Rho1D4 tag (ETSQVAPA), human-codon optimized, HEK293T; transcriptome reads SRA SRP339896
T3 sequence (Z9SF72QZI5 1-407 E199Q): T1 sequence (Z9SF72QZI5 1-407 E196Q) with Q196E, E199Q

[4] = target: T4, RhOpn5 (Rimicaris hybisae, UniProt Z9SF72QZI5, D98N, form not given); experiment: as above; format: binding; settings: covalent (Schiff base, Lys296); pH 8.0 and 6.5; 0 °C; mutation in bovine rhodopsin numbering; counterion mutant
T4 construct: 178 C-terminal residues truncated, C-terminal Rho1D4 tag (ETSQVAPA), human-codon optimized, HEK293T; transcriptome reads SRA SRP339896
T4 sequence (Z9SF72QZI5 1-407 D98N): T1 sequence (Z9SF72QZI5 1-407 E196Q) with D98N, Q196E

[5] = target: T5, RhPeropsin (Rimicaris hybisae, UniProt Z9VFR8UU34); experiment: HPLC of retinal isomers after irradiation; format: biochemical; settings: covalent (Schiff base, Lys296); photoproduct under yellow light (>500 nm); 0 °C
T5 construct: C-terminal Rho1D4 tag (ETSQVAPA), human-codon optimized, expressed in HEK293T, no truncation stated; transcriptome reads SRA SRP339896
T5 sequence (Z9VFR8UU34 1-341): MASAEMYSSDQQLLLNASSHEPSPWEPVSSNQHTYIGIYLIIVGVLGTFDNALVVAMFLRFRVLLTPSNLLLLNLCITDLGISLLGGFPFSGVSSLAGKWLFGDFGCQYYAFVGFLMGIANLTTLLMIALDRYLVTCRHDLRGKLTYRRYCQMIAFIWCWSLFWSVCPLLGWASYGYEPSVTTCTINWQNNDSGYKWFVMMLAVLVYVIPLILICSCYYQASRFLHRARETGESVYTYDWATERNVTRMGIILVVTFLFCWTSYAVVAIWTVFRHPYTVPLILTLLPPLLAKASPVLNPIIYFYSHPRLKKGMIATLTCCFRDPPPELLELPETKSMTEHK

[6] = target: T6, RhOpn5 (Rimicaris hybisae, UniProt Z9SF72QZI5); experiment: absorption spectroscopy and HPLC of retinal in purified pigment; format: binding; settings: covalent (Schiff base, Lys296); dark state; 0 °C
T6 construct: 178 C-terminal residues truncated, C-terminal Rho1D4 tag (ETSQVAPA), human-codon optimized, HEK293T; transcriptome reads SRA SRP339896
T6 sequence (Z9SF72QZI5 1-407): T1 sequence (Z9SF72QZI5 1-407 E196Q) with Q196E

[7] = target: T6, RhOpn5; experiment: as above; format: biochemical; settings: covalent (Schiff base, Lys296); photoproduct under yellow light (>480 nm); 0 °C
[8] = target: T5, RhPeropsin; experiment: as above; format: biochemical; settings: covalent (Schiff base, Lys296); dark state; photoisomerized under yellow light (>500 nm); 0 °C

| SMILES | UV-visible absorption spectroscopy of purified pigment [1] | UV-visible absorption spectroscopy of purified pigment [2] | UV-visible absorption spectroscopy of purified pigment [3] | UV-visible absorption spectroscopy of purified pigment [4] | HPLC of retinal isomers after irradiation [5] | absorption spectroscopy and HPLC of retinal in purified pigment [6] | absorption spectroscopy and HPLC of retinal in purified pigment [7] | absorption spectroscopy and HPLC of retinal in purified pigment [8] |
| --- | --- | --- | --- | --- | --- | --- | --- | --- |
| CC1=C(/C=C/C(C)=C/C=C\C(C)=C\C=O)C(C)(C)CCC1 [11-cis-retinal] | the E179Q, E182Q, and E286Q mutants did not show pH-dependent spectral changes | the E179Q, E182Q, and E286Q mutants did not show pH-dependent spectral changes | the E179Q, E182Q, and E286Q mutants did not show pH-dependent spectral changes | the D83N mutant showed a significant pH-dependent change, with a small peak in the visible | RhPeropsin converts all-trans-retinal to 11-cis-retinal upon visible light absorption | RhOpn5 forms a blue light–sensitive pigment binding 11-cis-retinal in the resting state |  |  |
| CC1=C(/C=C/C(C)=C/C=C/C(C)=C/C=O)C(C)(C)CCC1 [all-trans-retinal] |  |  |  |  |  |  | accompanied by the conversion from 11-cis- to all-trans-retinal | RhPeropsin exclusively binds all-trans-retinal in the dark and produces 11-cis-retinal from all-trans-retinal |

— paper PMC12221356, “A repertoire of visible light–sensitive opsins in the deep-sea hydrothermal vent shrimp Rimicaris hybisae” (The Journal of Biological Chemistry, 2025)
